Results taken from patent US20260008818A1, “CYCLIC PEPTIDE OR SALT THEREOF, AND USES THEREOF” (FUJIFILM Corporation, priority 2023, published 2026).
Bridge positions count the residues as written; N and C are the ends. Ends that are not written are not given here. COCH2 = acetyl group that carries the bridge

Test system: Recombinant Human FGFR1 alpha (IIIc) Fc Chimera Protein
Assay: Binding affinity of enzymatically synthesized cyclic peptide to FGFR by ELISA
Conditions: luminescence signal at reaction concentration 10 nmol/L, SEQ ID NO: 39 standardized to 1, enzyme synthesis product
Experimental: The binding affinity of the cyclic peptide to FGFR was evaluated using an ELISA method.
The binding affinity of the enzymatically synthesized cyclic peptide to FGFR was measured by evaluating the amount of the cyclic peptide bound to FGFR by ELISA.
First, 5 ng of Recombinant Human FGFR1 alpha (IIIc) Fc Chimera Protein CF (R&D systems, 658-FR-050) was immobilized in each well of a 96-well plate, and blocked with Pierce Protein-Free (PBS) Blocking Buffer (Thermo, 37572), and a cyclic peptide diluted with Can Get Signal Immunoreaction Enhancer Solution I (TOYOBO, NKB-101) was then added and reacted at room temperature for 3 hours. After washing with 0.05% Tween 20-containing phosphate buffered saline (PBS), an anti-Myc antibody (Cell Signaling, 14038S) diluted with Can Get Signal Immunoreaction Enhancer Solution II (TOYOBO, NKB-101) was added and reacted at room temperature for 2 hours. After washing with 0.05% Tween 20-containing PBS, SuperSignal ELISA Femto Substrate (Thermo, 37075) was added, and the luminescence amount was measured. The dose-response relationship was calculated from using the difference between the luminescence amount in the well in which FGFR was immobilized and the luminescence amount in the well in which FGFR was not immobilized, and the concentration of the cyclic peptide at the time of reaction, and the binding affinity to FGFR was evaluated according to the following evaluation criteria. The evaluation result preferably satisfies the evaluation criteria A, B, or C.
In a case where a value of a luminescence signal emitted by the cyclic peptide set forth in SEQ ID NO: 39 at a reaction concentration of 10 nmol/L is standardized to 1, evaluation criteria of the luminescence signal value emitted by the cyclic peptide at a reaction concentration of 10 nmol/L is as follows. • A: 0.7 or more • B: 0.5 or more and less than 0.7 • C: 0.1 or more and less than 0.5 • D: less than 0.1.

Substance | Evaluation result of binding affinity to FGFR
69 (LCSYERLQFHGHEAPFRVK(COCH2)V; thioether 2-19 (inferred)) [compound 69] | A (0.7 or more)
37 (CDRTLLYYRLSK(COCH2); thioether 1-12; not fully specified; printed as (C)-DRTLLYYRLS-(K(acetyl))) [compound 37] | D (less than 0.1)
226 (HK(COCH2)TWERLIFLGHIAPFWVCR; thioether 2-19 (inferred)) [compound 226] | B (0.5 or more and less than 0.7)
114 (HCSYERLQFHGHEVPFRVK(COCH2)V; thioether 2-19 (inferred)) [compound 114] | C (0.1 or more and less than 0.5)
129 (HCSYQRLQFHGHEAPFRVK(COCH2)V; thioether 2-19 (inferred)) [compound 129] | A (0.7 or more)
80 (ECSYERLQFHGHEAPFRVKV; not fully specified; Description of Artificial Sequence: Cyclic peptide) [compound 80] | A (0.7 or more)
161 (HCSYERLQYHGHEAPFRVK(COCH2)V; thioether 2-19 (inferred)) [compound 161] | C (0.1 or more and less than 0.5)
88 (HCYYERLQFHGHEAPFRVKV; not fully specified; Description of Artificial Sequence: Cyclic peptide) [compound 88] | A (0.7 or more)
76 (QCSYERLQFHGHEAPFRVK(COCH2)V; thioether 2-19 (inferred)) [compound 76] | A (0.7 or more)
42 (RCWDQLTFYGHQAPFYVK(COCH2)G; thioether 2-18 (inferred)) [compound 42] | A (0.7 or more)
103 (HCSTERLQFHGHEAPFRVK(COCH2)V; thioether 2-19 (inferred)) [compound 103] | A (0.7 or more)
138 (HCSYEVLQFHGHEAPFRVK(COCH2)V; thioether 2-19 (inferred)) [compound 138] | A (0.7 or more)
234 (HK(COCH2)TWERLRFLGHIAPFWVCR; thioether 2-19 (inferred)) [compound 234] | A (0.7 or more)
78 (TCSYERLQFHGHEAPFRVKV; not fully specified; Description of Artificial Sequence: Cyclic peptide) [compound 78] | A (0.7 or more)
190 (HCSYERLQFHGHHAPFRVK(COCH2)V; thioether 2-19 via Ac) [compound 190] | A (0.7 or more)
187 (HCSYERLQFHGHTAPFRVK(COCH2)V; thioether 2-19 via Ac) [compound 187] | A (0.7 or more)
201 (HCSYERLQFHGHEAPFHVK(COCH2)V; thioether 2-19 via Ac; not fully specified) [compound 201] | A (0.7 or more)
240 (HK(COCH2)TWERLIFLGHIAPFHVCR; thioether 2-19 (inferred)) [compound 240] | A (0.7 or more)
82 (HCGYERLQFHGHEAPFRVKV; not fully specified; Description of Artificial Sequence: Cyclic peptide) [compound 82] | A (0.7 or more)
111 (HCSYERLQFHGYEAPFRVK(COCH2)V; thioether 2-19 (inferred)) [compound 111] | C (0.1 or more and less than 0.5)
172 (HCSYERLQFSGHEAPFRVK(COCH2)V; thioether 2-19 (inferred)) [compound 172] | B (0.5 or more and less than 0.7)
195 (HCSYERLQFHGHEAPFYVK(COCH2)V; thioether 2-19 via Ac) [compound 195] | A (0.7 or more)
146 (HCSYERLLFHGHEAPFRVK(COCH2)V; thioether 2-19 (inferred)) [compound 146] | A (0.7 or more)
46 (ACWVQYLWHGHAAPFLIK(COCH2)S; thioether 2-18 (inferred)) [compound 46] | C (0.1 or more and less than 0.5)
231 (HK(COCH2)TFERLIFLGHIAPFWVCR; thioether 2-19 (inferred)) [compound 231] | B (0.5 or more and less than 0.7)
36 (CRALLRGAPFHLAEK(COCH2); thioether 1-15; not fully specified; printed as (C)-RALLRGAPFHLAE-(K(acetyl))) [compound 36] | D (less than 0.1)
125 (HCSYFRLQFHGHEAPFRVK(COCH2)V; thioether 2-19 (inferred)) [compound 125] | C (0.1 or more and less than 0.5)
235 (HK(COCH2)TWERLIFRGHIAPFWVCR; thioether 2-19 (inferred)) [compound 235] | A (0.7 or more)
113 (HCSYERLQFHGHEGPFRVK(COCH2)V; thioether 2-19 (inferred)) [compound 113] | C (0.1 or more and less than 0.5)

Continued, values first:

Evaluation result of binding affinity to FGFR | Substance
A (0.7 or more) | 332 (HCTYERLIFHGHIAPFWVK(COCH2)V; thioether 2-19 (inferred)) [compound 332]
A (0.7 or more) | 327 (HCSYERLIFHGHEAPFWVK(COCH2)V; thioether 2-19 (inferred)) [compound 327]
C (0.1 or more and less than 0.5) | 282 (TCQWEQLRIGPHLAPFRSK(COCH2)R; thioether 2-19 (inferred)) [compound 282]
C (0.1 or more and less than 0.5) | 367 (WCRTWLWFEIPFWYQK(COCH2)E; thioether 2-16) [compound 367]
A (0.7 or more) | 370 (CYERLIFHGHEAPFWVK(COCH2)V; thioether 1-17) [compound 370]
C (0.1 or more and less than 0.5) | 362 (WCHYAPFWVLNEGQLK(COCH2)V; thioether 2-16) [compound 362]
C (0.1 or more and less than 0.5) | 306 (HCSYERLQFHGHEAMFRVK(COCH2)V; thioether 2-19 (inferred)) [compound 306]
C (0.1 or more and less than 0.5) | 357 (ACWLRHIYQGHQAPFLIWSTK(COCH2)Y; thioether 2-21) [compound 357]
C (0.1 or more and less than 0.5) | 368 (ECKVHLHPWGAPFWIK(COCH2)S; thioether 2-16) [compound 368]
C (0.1 or more and less than 0.5) | 304 (HCSYERLQFHMHEAPFRVK(COCH2)V; thioether 2-19 (inferred)) [compound 304]
C (0.1 or more and less than 0.5) | 339 (YCITQHPWAPFWVVNPWDNK(COCH2)L; thioether 2-20 (inferred)) [compound 339]
C (0.1 or more and less than 0.5) | 277 (QCYVQLYVWGHPAPFYWDK(COCH2)I; thioether 2-19 (inferred)) [compound 277]
A (0.7 or more) | 328 (HCSYERLIFHGHIAPFWVK(COCH2)V; thioether 2-19 (inferred)) [compound 328]
A (0.7 or more) | 258 (ECYHKLIFLGWEAPFWHK(COCH2)E; thioether 2-18 (inferred)) [compound 258]
B (0.5 or more and less than 0.7) | 353 (PCVQQISPHPWGAPFWVVTSK(COCH2)Y; thioether 2-21) [compound 353]
B (0.5 or more and less than 0.7) | 356 (ACWLRHIYQGHKAPFLIWSTK(COCH2)S; thioether 2-21) [compound 356]
C (0.1 or more and less than 0.5) | 249 (RCWKVLKVLGHRAPFLIAK(COCH2)Y; thioether 2-19 (inferred)) [compound 249]
C (0.1 or more and less than 0.5) | 343 (QCWQQAYAYFPHVLAPFLVK(COCH2)S; thioether 2-20) [compound 343]
C (0.1 or more and less than 0.5) | 322 (HCTWERLIFLGHIAPFLVK(COCH2)R; thioether 2-19 (inferred)) [compound 322]
A (0.7 or more) | 329 (HCSYERLRFHGHIAPFWVK(COCH2)V; thioether 2-19 (inferred)) [compound 329]
C (0.1 or more and less than 0.5) | 270 (QCYVQLYVWGHPAPFYWDK(COCH2)T; thioether 2-19 (inferred)) [compound 270]
